In patent US6916803B2, “3-(Heteroaryl acetamido)-2-oxo-azetidine-1-sulfonic acids derivatives as antibacterial agents” (Pantherix, Ltd., priority 2000, dated 2005):
Converted amounts (≈) assume the structure as drawn. Where two headings read alike, the source gives them in different places.

Key:
Experiment in all cases: MIC, standard microbroth dilution method (NCCLS)
Format in all cases: cell-based
C. freundii K 500 = settings: Citrobacter freundii, K500
Protocol: (§1) The compounds of the present invention were tested for minimum inhibitory concentration (MIC) against the bacteria listed in Table-1 according to the standard microbroth dilution method as described in NCCLS document. The minimum inhibitory concentration is expressed in μg/ml.

E. cloaacae S 480-2 = tested on: E. cloaacae S 480-2
Protocol: as §1

E. coli TEM-2 = settings: Escherichia coli, TEM2
Protocol: as §1

K pneumoniae K-1150 = tested on: K pneumoniae K-1150
Protocol: as §1

M Morganii K 1250 = tested on: M Morganii K 1250
Protocol: as §1

P. aeruginosa PD 2721 = settings: Pseudomonas aeruginosa, PD2721
Protocol: as §1

P. aeruginosa S 1598 = settings: Pseudomonas aeruginosa, S1598
Protocol: as §1

P. aeruginosa CL 1267 = settings: Pseudomonas aeruginosa, CL1267
Protocol: as §1

| SMILES | MIC (C. freundii K 500) [µg/mL] | MIC (E. cloaacae S 480-2) [µg/mL] | MIC (E. coli TEM-2; E. coli TEM-2, read-out: MIC) [µg/mL] | MIC (K pneumoniae K-1150) [µg/mL] | MIC (M Morganii K 1250) [µg/mL] | MIC (P. aeruginosa PD 2721) [µg/mL] | MIC (P. aeruginosa S 1598) [µg/mL] | MIC (P. aeruginosa CL 1267) [µg/mL] | MIC (E. coli TEM-2) [µg/mL] |
| --- | --- | --- | --- | --- | --- | --- | --- | --- | --- |
| C[C@H]1[C@H](NC(=O)/C(=N\OC(C)(C)C(=O)O)c2csc(N)n2)C(=O)N1S(=O)(=O)O [Aztreonam, reference compound] | 0.13 (≈ 0.299 µM) | 0.13 (≈ 0.299 µM) | 0.06 (≈ 0.138 µM) | 0.06 (≈ 0.138 µM) | 0.06 (≈ 0.138 µM) | 64 (≈ 147 µM) | 32 (≈ 73.5 µM) | – | – |
| NC(=O)OC[C@@H]1[C@H](NC(=O)/C(=N\OCC(=O)O)c2csc(N)n2)C(=O)N1S(=O)(=O)O [Carumonam, reference compound] | 0.06 (≈ 0.129 µM) | 0.06 (≈ 0.129 µM) | 0.06 (≈ 0.129 µM) | 0.06 (≈ 0.129 µM) | 0.06 (≈ 0.129 µM) | 32 (≈ 68.6 µM) | 8 (≈ 17.2 µM) | 8 (≈ 17.2 µM) | – |
| C[C@H]1[C@H](NC(=O)/C(=N\OCc2cc(=O)c(O)cn2O)c2csc(N)n2)C(=O)N1S(=O)(=O)[O-].[Na+] [Example 1] | 0.13 | 0.06 | – | 0.13 | 0.06 | 4 | 0.13 | 0.06 | 0.06 |
| NC(=O)OCC1C(NC(=O)/C(=N\OCc2cc(=O)c(O)cn2O)c2csc(N)n2)C(=O)N1S(=O)(=O)[O-].[Na+] (stereo not drawn) [Example 2, 3-[2-(2-Aminothiazol-4-yl)-(Z)-2-{(1,5-dihydroxy-4-pyridon-2-ylmethoxy)imino}-acetamido]-4-carbamoyloxymethyl-2-azetidinone-1-sulfonic acid, sodium salt] | 0.5 | 0.25 | – | 0.06 | 0.13 | 128 | 0.13 | 0.06 | 0.06 |
| Nc1nc(/C(=N/OCc2cc(=O)c(O)cn2O)C(=O)NC2C(=O)N(S(=O)(=O)[O-])C2CF)cs1.[Na+] (stereo not drawn) [Example 3, 3-[2-(2-Aminothiazol-4-yl)-(Z)-2-{(1,5-dihydroxy-4-pyridon-2-yl-methoxy)imino}-acetamido]-4-fluoromethyl-2-azetidinone-1-sulfonic acid, sodium salt] | 0.5 | 2 | – | 0.06 | 0.06 | 32 | 0.13 | 0.06 | 0.06 |
